Biological target: T1, LRRK2^KW (Homo sapiens, UniProt Q5S007)
T1 construct: LRRK2 R1847 to E2527; His6-Z-tag (TEV cleavable) (N, cleaved yes); host or cells: Sf9 insect cells (baculovirus)
T1 sequence (Q5S007 1847-2527): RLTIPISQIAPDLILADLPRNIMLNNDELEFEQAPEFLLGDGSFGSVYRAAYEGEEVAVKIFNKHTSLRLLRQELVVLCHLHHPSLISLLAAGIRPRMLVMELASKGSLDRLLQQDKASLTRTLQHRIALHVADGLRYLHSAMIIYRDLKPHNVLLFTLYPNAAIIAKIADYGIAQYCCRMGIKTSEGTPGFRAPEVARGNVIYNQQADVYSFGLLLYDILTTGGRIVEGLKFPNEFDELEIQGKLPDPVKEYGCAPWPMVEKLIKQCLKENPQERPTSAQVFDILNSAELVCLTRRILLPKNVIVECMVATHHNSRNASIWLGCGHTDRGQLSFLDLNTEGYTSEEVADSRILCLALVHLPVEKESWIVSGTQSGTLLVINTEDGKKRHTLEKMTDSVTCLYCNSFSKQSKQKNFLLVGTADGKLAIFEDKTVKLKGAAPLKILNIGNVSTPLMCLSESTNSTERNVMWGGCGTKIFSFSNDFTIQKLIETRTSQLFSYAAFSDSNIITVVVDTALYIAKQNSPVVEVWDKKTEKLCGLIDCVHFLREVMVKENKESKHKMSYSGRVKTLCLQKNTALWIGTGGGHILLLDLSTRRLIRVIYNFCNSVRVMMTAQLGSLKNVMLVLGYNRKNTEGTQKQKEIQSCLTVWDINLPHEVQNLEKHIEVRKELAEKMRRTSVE
Assay: DSF thermal stabilization of LRRK2^KW
Format: binding
Conditions: screen of 31 type-II inhibitors, Table S1
Experimental: To characterize binding between small molecules and LRRK2^KW, induced thermal stabilization was measured by DSF according to previously established protocols ([47]). In brief, LRRK2^KW was diluted to 4 μM in 20 mM Hepes (pH 7.4), 150 mM NaCl, 0.5 mM TCEP, 0.5% glycerol, 20 μM GDP, and 2.5 mM MgCl2, and SYPRO Orange was added (1:1000, MilliporeSigma). Inhibitor (10 μM) to be tested was added to a final sample volume of 20 μl per well of a 96-well plate (white, Starlab). […] The fluorescence was plotted against the temperature, and the melting point (Tm) was determined as the minimum of the first derivative relative to the control.

dTm LRRK2(KW) [K] | Structure (SMILES)
10 | CCN1CCN(Cc2ccc(NC(=O)Nc3ccc(Oc4cc(NC)ncn4)cc3)cc2C(F)(F)F)CC1 [AST-487, reference compound]
0 | Cc1ccc(-n2nc(C(C)(C)C)cc2NC(=O)Nc2ccc(OCCN3CCOCC3)c3ccccc23)cc1 [BIRB-796, reference compound]
3 | COc1cc(Oc2ccnc3cc(OC)c(OC)cc23)ccc1NC(=O)NC(C)c1nccs1 (centres unmarked) [KI20227, reference compound]
0 | O=C(Nc1ccc(OC(F)(F)F)cc1)c1sccc1NCc1ccnc2ccccc12 [OSI-930, reference compound]
11 | Cc1ccc(-n2nc(C(C)(C)C)cc2NC(=O)Nc2cc(COc3cccnc3)[nH]n2)cc1 [PF-4618433, reference compound]
-1 | Cc1ccc(NC(=O)c2cccc(N(C)C)c2)cc1NC(=O)c1ccc(O)cc1 [ZM336372, reference compound]
6.5 | COc1cc2c(Nc3ccc(NC(=O)c4ccccc4)cc3)ncnc2cc1OCCCN1CCOCC1 [ZM447439, reference compound]

More lines, now with the values behind:

Structure (SMILES) | dTm LRRK2(KW) [K]
CCN1CCN(Cc2ccc(NC(=O)c3ccc(C)c(NC(=O)c4cncc(-c5cccs5)c4)c3)cc2C(F)(F)F)CC1 [ALW-II-41-27, reference compound] | -0.5
Cc1csc(-c2nnc(Nc3ccc(Oc4ncccc4-c4ccnc(N)n4)cc3)c3ccccc23)c1 [AMG 900, reference compound] | 4.5
Cc1ccc(NC(=O)c2cccc(C(C)(C)C#N)c2)cc1Nc1ccc2ncn(C)c(=O)c2c1 [AZ 628, reference compound] | -0.5
N#CC1(c2ccc(NC(=O)c3cccnc3NCc3ccncc3)cc2)CCCC1 [Apatinib, reference compound] | -1
CNC(=O)c1ccccc1Sc1ccc2c(/C=C/c3ccccn3)n[nH]c2c1 [Axitinib, reference compound] | 7.5
CCOc1ccn(-c2ccc(F)cc2)c(=O)c1C(=O)Nc1ccc(Oc2ccnc(N)c2Cl)c(F)c1 [BMS 777607, reference compound] | 6.8
COc1cc2nccc(Oc3ccc(NC(=O)C4(C(=O)Nc5ccc(F)cc5)CC4)cc3)c2cc1OC [Cabozantinib, reference compound] | 7.5
CN1CCN(C2CCN(C(=O)Nc3cc(Oc4ccc(NC(=O)C5(C(=O)Nc6ccc(F)cc6)CC5)c(F)c4)ccn3)CC2)CC1 [Golvatinib, reference compound] | 0.5
Cc1ccc(NC(=O)c2ccc(CN3CCN(C)CC3)cc2)cc1Nc1nccc(-c2cccnc2)n1 [Imatinib, reference compound] | 0
Cc1ccc(F)c(NC(=O)Nc2ccc(-c3cccc4[nH]nc(N)c34)cc2)c1 [Linifanib, reference compound] | 5.8
Cc1ccc(NC(=O)c2ccc(CN3CCN(C)CC3)cc2)cc1Nc1nc(-c2cccnc2)cs1 [Masitinib, reference compound] | 0
CC1(C)CNc2cc(NC(=O)c3cccnc3NCc3ccncc3)ccc21 [Motesanib, reference compound] | -0.5
Cc1ccc(C(=O)Nc2cccc(C(F)(F)F)c2)cc1Nc1nc(-c2cccnc2)nc2c1cnn2C [NVP-BHG712, reference compound] | -0.5
Cc1cn(-c2cc(NC(=O)c3ccc(C)c(Nc4nccc(-c5cccnc5)n4)c3)cc(C(F)(F)F)c2)cn1 [Nilotinib, reference compound] | -2.5
COC(=O)c1ccc2c(c1)NC(=O)/C2=C(\Nc1ccc(N(C)C(=O)CN2CCN(C)CC2)cc1)c1ccccc1 [Nintedanib, reference compound] | 5
FC(F)(F)c1ccc(CNc2ccc(Cc3c[nH]c4ncc(Cl)cc34)cn2)cn1 [Pexidartinib, reference compound] | 6.8
CC(C)(C)c1cc(NC(=O)Nc2ccc(-c3cn4c(n3)sc3cc(OCCN5CCOCC5)ccc34)cc2)no1 [Quizartinib, reference compound] | 3.5
CNC(=O)c1cc(Oc2ccc(NC(=O)Nc3ccc(Cl)c(C(F)(F)F)c3)c(F)c2)ccn1 [Regorafinib, reference compound] | 5.5
COc1cc2nccc(Oc3ccc(NC(=O)Nc4cc(C)on4)c(Cl)c3)c2cc1OC [Tivozanib (AV-951), reference compound] | 11.5

Reference: article PMC12136037, “Type II kinase inhibitors that target Parkinson’s disease–associated LRRK2” (Science Advances, 2025)
